{
  "source": "patent US9504662B2",
  "about": "“Composition for skin improvement comprising hexamidines and retinoids” (AMOREPACIFIC CORPORATION, priority 2009, dated 2016)",
  "origin": "cited, not measured here",
  "conditions": "4 μM of retinol vs 100 nM of Isotretinoin; general statement, no method given",
  "data": [
    {"smiles": "CC1=C(/C=C/C(C)=C/C=C/C(C)=C/CO)C(C)(C)CCC1", "note": "[retinol]", "values": [
      {"measurement": "sebum-inhibiting effect", "value": "substantially has the same degree of sebum-inhibiting effect as 100 nM of Isotretinoin"}
    ]}
  ]
}
